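The compound was tested at five concentrations on cells cultured in 96-well plates, with a 48-hour exposure period. GI50 is the concentration that inhibits growth by half.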 Activity calls are given as the source filed them. Cut-off read from the data, not from the text of the source: active = GI50 up to about 1.1 µM and inactive = higher.
Experiments:
Assay in all cases: NCI-60 cell line screen, 48 h
[1] = test system: LXFL 529
[2] = test system: NCI-H460
[3] = test system: SN12C
[4] = test system: HT-29
[5] = test system: SF-295
[6] = test system: M19-MEL
[7] = test system: HCT-116
[8] = test system: XF498
[9] = test system: OVCAR-5
[10] = test system: SNB-19
[11] = test system: SW-620
[12] = test system: NCI-H23
[13] = test system: SF-539
[14] = test system: RPMI-8226
[15] = test system: RXF 631
[16] = test system: TK-10
[17] = test system: U-251
[18] = test system: OVCAR-8
[19] = test system: SNB-78
[20] = test system: SK-OV-3
[21] = test system: Malme-3M
[22] = test system: SK-MEL-2
[23] = test system: IGROV-1
[24] = test system: COLO 205
[25] = test system: UACC-62
[26] = test system: DMS-273
[27] = test system: HOP-18
[28] = test system: DLD-1
[29] = test system: DMS-114
[30] = test system: EKVX
[31] = test system: OVCAR-4
[32] = test system: MOLT-4
[33] = test system: KM-20L2
[34] = test system: NCI-H522
[35] = test system: CAKI-1
[36] = test system: HCT-15
[37] = test system: RXF 393
[38] = test system: ACHN
[39] = test system: A549
[40] = test system: 786-0
[41] = test system: SK-MEL-5
[42] = test system: HCC 2998
[43] = test system: SK-MEL-28
[44] = test system: SNB-75
[45] = test system: K562
[46] = test system: KM12
[47] = test system: NCI-H226
[48] = test system: UO-31
[49] = test system: UACC-257

Measured: GI50

COc1ccc(C(=O)/C(=N/Nc2ccccc2)c2ccc(OC)cc2)cc1
inactive: [1] 25.2 µM | [2] > 100 µM | [3] > 100 µM | [4] 18.3 µM | [5] > 100 µM | [6] > 100 µM | [7] > 100 µM | [8] > 100 µM | [9] > 100 µM | [10] > 100 µM | [11] > 100 µM | [12] > 100 µM | [13] > 100 µM | [14] 51.4 µM | [15] 8.43 µM | [16] > 100 µM | [17] > 100 µM | [18] > 100 µM | [19] > 100 µM | [20] 61.2 µM | [21] > 100 µM | [22] > 100 µM | [23] > 100 µM | [24] > 100 µM | [25] 13.3 µM | [26] 31.6 µM | [27] > 100 µM | [28] 6.87 µM | [29] 58.1 µM | [30] > 100 µM | [31] > 100 µM | [32] 9.66 µM | [33] 10.2 µM | [34] 80.4 µM | [35] > 100 µM | [37] 31.9 µM | [38] 33.9 µM | [39] > 100 µM | [40] > 100 µM | [41] > 100 µM | [42] > 100 µM | [43] > 100 µM | [44] 27 µM | [45] 20.4 µM | [46] 10.6 µM | [47] > 100 µM | [48] > 100 µM | [49] > 100 µM
8.55 µM: [36]

From ChEMBL document CHEMBL1201862, “PubChem BioAssay data set” (2004)
